Test results from patent publication US20240425524A1, “SPIROTRICYCLE RIPK1 INHIBITORS AND METHODS OF USES THEREOF” (Merck Sharp & Dohme LLC, priority 2021, published 2024).

Target: RIPK1 (Homo sapiens (Human), UniProt Q13546)
Assay: RIPK1-ADP-Glo Enzymatic Assay
Assay type: biochemical
Conditions: recombinant GST-RIPK1 kinase domain (residues 1-327), 25 nM, ten-point titration, 30 minutes pre-incubation
Description: The enzymatic activity of RIPK1 was measured using an assay derived from ADP-Glo kit (™Promega), which provides a luminescent-based ADP detection system. Specifically, the ADP generated by RIPK1 kinase was proportionally detected as luminescent signals in a homogenous fashion. In this context, the assessment of the inhibitory effect of small molecules (EC50) was measured by the effectiveness of the compounds to inhibit the ATP to ADP conversion by RIPK1.
In this assay, the potency (EC50) of each compound was determined from a ten-point (1:3 serial dilution: top compound concentration of 100000 nM) titration curve using the following outlined procedure. To each well of a white ProxiPlus 384 well-plate, 30 nL of compound (1% DMSO in final assay volume of 3 μL) was dispensed, followed by the addition of 2 μL of 1x assay buffer (25 mM Hepes 7.3, 20 mM MgCl2, 50 mM NaCl, 1 mM DTT, 0.005% Tween20, and 0.02% BSA) containing 37.5 nM of GST-RIPK1 (recombinant GST-RIPK1 kinase domain (residues 1-327) enzyme produced from baculovirus-transfected Sf21 cells: MW=62 kDa). Plates were placed in an ambient temperature humidified chamber for a 30 minutes pre-incubation with compound. Subsequently, each reaction was initiated by the addition of 1 μL 1× assay buffer containing […] dephosphorylated-MBP substrate. The final reaction in each well of 3 μL consists of 25 nM of GST-RIPK1, 300 µM ATP, and 3 μM dephosphorylated-MBP. Kinase reactions were allowed to proceed for 150 minutes prior to adding ADP-Glo reagents per Promega's outlined kit protocol. Dose-response curves were generated by plotting percent effect (% product conversion: Y-axis) vs. Logio compound concentrations (X-axis). EC50 values were calculated using a non-linear regression, four-parameters sigmoidal dose-response model and are provided for example compounds of the invention (labeled “RIPK1 EC50 (nM)” throughout the above examples).

Chain of RIPK1 (Q13546 1-327): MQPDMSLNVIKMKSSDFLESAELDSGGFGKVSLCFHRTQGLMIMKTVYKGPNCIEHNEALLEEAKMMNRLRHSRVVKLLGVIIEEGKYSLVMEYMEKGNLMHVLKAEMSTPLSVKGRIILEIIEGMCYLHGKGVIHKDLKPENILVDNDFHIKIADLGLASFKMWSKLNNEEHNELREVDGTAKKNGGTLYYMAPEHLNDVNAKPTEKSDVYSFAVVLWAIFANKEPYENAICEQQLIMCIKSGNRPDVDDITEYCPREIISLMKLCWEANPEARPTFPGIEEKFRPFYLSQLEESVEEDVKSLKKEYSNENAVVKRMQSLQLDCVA

For `CN(C)c1nc(Cl)cc(N2CCC3(CC2)CN2CC[C@@H](c4cc(F)cc(F)c4)N2C3=O)n1` [Example 1.30, (S)-1-(6-chloro-2-(dimethylamino)pyrimidin-4-yl)-7′-(3,5-difluorophenyl)dihydro-1′H,3′H,5′H-spiro[piperidine-4,2′-pyrazolo[1,2-a]pyrazol]-1′-one], which EC50 is on record?
Its EC50 is 110 nM.

For `COc1nc(OC)nc(N2CCC3(CC2)CN2CC[C@@H](c4cc(F)cc(F)c4)N2C3=O)n1` [Example 1.31, (S)-7′-(3,5-difluorophenyl)-1-(4,6-dimethoxy-1,3,5-triazin-2-yl)dihydro-1′H,3′H,5′H-spiro [piperidine-4,2′-pyrazolo[1,2-a]pyrazol]-1′-one], which EC50 is on record?
The EC50 was 285 nM.

How did the EC50 turn out when `O=C1N2[C@H](c3cc(F)cc(F)c3)CCN2CC12CCN(c1ncc3c(n1)CCCC3)CC2` [Example 1.32, (S)-7′-(3,5-difluorophenyl)-1-(5,6,7,8-tetrahydroquinazolin-2-yl)dihydro-1′H,3′H,5′H-spiro[piperidine-4,2′-pyrazolo[1,2-a]pyrazol]-1′-one] was run?
The EC50 was 288 nM.

For `O=C1N2[C@H](c3cc(F)cc(F)c3)CCN2CC12CCN(c1ccc(Cl)nn1)CC2` [Example 1.34, (S)-1-(6-chloropyridazin-3-yl)-7′-(3,5-difluorophenyl)dihydro-1′H,3′H,5′H-spiro[piperidine-4,2′-pyrazolo[1,2-a]pyrazol]-1′-one], which EC50 is on record?
Its EC50 is 457 nM.

For `O=C1N2[C@H](c3cc(F)cc(F)c3)CCN2CC12CCN(c1cc(-c3ccccc3)ncn1)CC2` [Example 1.35, (S)-7′-(3,5-difluorophenyl)-1-(6-phenylpyrimidin-4-yl)dihydro-1′H,3′H,5′H-spiro[piperidine-4,2′-pyrazolo[1,2-a]pyrazol]-1′-one], which EC50 is on record?
Its EC50 is 15 nM.

`N#Cc1ccc(N2CCC3(CC2)CN2CC[C@@H](c4cc(F)cc(F)c4)N2C3=O)nn1` [Example 1.37, (S)-6-(7′-(3,5-difluorophenyl)-1′-oxodihydro-1′H,3′H,5′H-spiro[piperidine-4,2′-pyrazolo[1,2-a]pyrazol]-1-yl)pyridazine-3-carbonitrile] was tested. Which EC50 did it give?
Its EC50 is 473 nM.

How did the EC50 turn out when `Cc1c(Cl)ncnc1N1CCC2(CC1)CN1CC[C@@H](c3cc(F)cc(F)c3)N1C2=O` [Example 1.38, (S)-1-(6-chloro-5-methylpyrimidin-4-yl)-7′-(3,5-difluorophenyl)dihydro-1′H,3′H,5′H-spiro[piperidine-4,2′-pyrazolo[1,2-a]pyrazol]-1′-one] was run?
The EC50 was 20 nM.

`O=C1N2[C@H](c3cc(F)cc(F)c3)CCN2CC12CCN(c1ccc(C(F)(F)F)cn1)CC2` [Example 1.39, (S)-7′-(3,5-difluorophenyl)-1-(5-(trifluoromethyl)pyridin-2-yl)dihydro-1′H,3′H,5′H-spiro[piperidine-4,2′-pyrazolo[1,2-a]pyrazol]-1′-one] was tested. Which EC50 did it give?
Its EC50 is 77 nM.

`O=C1N2[C@H](c3cc(F)cc(F)c3)CCN2CC12CCN(c1cncc(Cl)n1)CC2` [Example 1.40, (S)-1-(6-chloropyrazin-2-yl)-7′-(3,5-difluorophenyl)dihydro-1′H,3′H,5′H-spiro[piperidine-4,2′-pyrazolo[1,2-a]pyrazol]-1′-one] was tested. Which EC50 did it give?
The EC50 was 407 nM.

How did the EC50 turn out when `O=C1N2[C@H](c3cc(F)cc(F)c3)CCN2CC12CCN(c1cnccn1)CC2` [Example 1.41, (S)-7′-(3,5-difluorophenyl)-1-(pyrazin-2-yl)dihydro-1′H,3′H,5′H-spiro[piperidine-4,2′-pyrazolo[1,2-a]pyrazol]-1′-one] was run?
Its EC50 is 308 nM.

With `O=C1N2[C@H](c3cc(F)cc(F)c3)CCN2CC12CCN(c1cnc(Cl)cn1)CC2` [Example 1.42, (S)-1-(5-chloropyrazin-2-yl)-7′-(3,5-difluorophenyl)dihydro-1′H,3′H,5′H-spiro[piperidine-4,2′-pyrazolo[1,2-a]pyrazol]-1′-one] as the compound, how does the EC50 read?
Its EC50 is 86 nM.

With `Cc1ncc(Cl)nc1N1CCC2(CC1)CN1CC[C@@H](c3cc(F)cc(F)c3)N1C2=O` [Example 1.43, (S)-1-(6-chloro-3-methylpyrazin-2-yl)-7′-(3,5-difluorophenyl)dihydro-1′H,3′H,5′H-spiro[piperidine-4,2′-pyrazolo[1,2-a]pyrazol]-1′-one] as the compound, how does the EC50 read?
The EC50 was 876 nM.

With `Cc1cc(N2CCC3(CC2)CN2CC[C@@H](c4cc(F)cc(F)c4)N2C3=O)nc(C(F)(F)F)n1` [Example 1.44, (S)-7′-(3,5-difluorophenyl)-1-(6-methyl-2-(trifluoromethyl)pyrimidin-4-yl)dihydro-1′H,3′H,5′H-spiro[piperidine-4,2′-pyrazolo[1,2-a]pyrazol]-1′-one] as the compound, how does the EC50 read?
Its EC50 is 274 nM.

For `Cc1nccc(N2CCC3(CC2)CN2CC[C@@H](c4cc(F)cc(F)c4)N2C3=O)n1` [Example 1.45, (S)-7′-(3,5-difluorophenyl)-1-(2-methylpyrimidin-4-yl)dihydro-1′H,3′H,5′H-spiro[piperidine-4,2′-pyrazolo[1,2-a]pyrazol]-1′-one], which EC50 is on record?
Its EC50 is 176 nM.

How did the EC50 turn out when `O=C1N2[C@H](c3cc(F)cc(F)c3)CCN2CC12CCN(c1ccnc(C3CC3)n1)CC2` [Example 1.46, (S)-1-(2-cyclopropylpyrimidin-4-yl)-7′-(3,5-difluorophenyl)dihydro-1′H,3′H,5′H-spiro[piperidine-4,2′-pyrazolo[1,2-a]pyrazol]-1′-one] was run?
The EC50 was 59 nM.

Which EC50 does the source give for `CC(C)c1nc(Cl)cc(N2CCC3(CC2)CN2CC[C@@H](c4cc(F)cc(F)c4)N2C3=O)n1` [Example 1.47, (S)-1-(6-chloro-2-isopropylpyrimidin-4-yl)-7′-(3,5-difluorophenyl)dihydro-1′H,3′H,5′H-spiro[piperidine-4,2′-pyrazolo[1,2-a]pyrazol]-1′-one] here?
Its EC50 is 153 nM.

Which EC50 does the source give for `Cc1cc(N2CCC3(CC2)CN2CC[C@@H](c4cc(F)cc(F)c4)N2C3=O)nc(Cl)n1` [Example 1.48, (S)-1-(2-chloro-6-methylpyrimidin-4-yl)-7′-(3,5-difluorophenyl)dihydro-1′H,3′H,5′H-spiro[piperidine-4,2′-pyrazolo[1,2-a]pyrazol]-1′-one] here?
Its EC50 is 144 nM.

With `CC(C)c1nccc(N2CCC3(CC2)CN2CC[C@@H](c4cc(F)cc(F)c4)N2C3=O)n1` [Example 1.49, (S)-7′-(3,5-difluorophenyl)-1-(2-isopropylpyrimidin-4-yl)dihydro-1′H,3′H,5′H-spiro[piperidine-4,2′-pyrazolo[1,2-a]pyrazol]-1′-one] as the compound, how does the EC50 read?
Its EC50 is 295 nM.

Which EC50 does the source give for `N#Cc1ccc(N2CCC3(CC2)CN2CC[C@@H](c4cc(F)cc(F)c4)N2C3=O)nc1` [Example 1.50, (S)-6-(7′-(3,5-difluorophenyl)-1′-oxodihydro-1′H,3′H,5′H-spiro[piperidine-4,2′-pyrazolo[1,2-a]pyrazol]-1-yl)nicotinonitrile] here?
Its EC50 is 64 nM.

For `N#Cc1c(F)c(F)nc(N2CCC3(CC2)CN2CC[C@@H](c4cc(F)cc(F)c4)N2C3=O)c1F` [Example 1.51, (S)-2-(7′-(3,5-difluorophenyl)-1′-oxodihydro-1′H,3′H,5′H-spiro [piperidine-4,2′-pyrazolo[1,2-a]pyrazol]-1-yl)-3,5,6-trifluoroisonicotinonitrile], which EC50 is on record?
The EC50 was 189 nM.

With `N#Cc1cc(Cl)nc(N2CCC3(CC2)CN2CC[C@@H](c4cc(F)cc(F)c4)N2C3=O)c1` [Example 1.52, (S)-2-chloro-6-(7′-(3,5-difluorophenyl)-1′-oxodihydro-1′H,3′H,5′H-spiro[piperidine-4,2′-pyrazolo[1,2-a]pyrazol]-1-yl)isonicotinonitrile] as the compound, how does the EC50 read?
The EC50 was 54 nM.

Which EC50 does the source give for `O=C1N2[C@H](c3cc(F)cc(F)c3)CCN2CC12CCN(c1nc(Cl)nc3[nH]ncc13)CC2` [Example 1.53, (S)-1-(6-chloro-1H-pyrazolo[3,4-d]pyrimidin-4-yl)-7′-(3,5-difluorophenyl)dihydro-1′H,3′H,5′H-spiro[piperidine-4,2′-pyrazolo[1,2-a]pyrazol]-1′-one] here?
Its EC50 is 857 nM.

With `O=C1N2[C@H](c3cc(F)cc(F)c3)CCN2CC12CCN(c1ncc(Br)cn1)CC2` [Example 1.54, (S)-1-(5-bromopyrimidin-2-yl)-7′-(3,5-difluorophenyl)dihydro-1′H,3′H,5′H-spiro[piperidine-4,2′-pyrazolo[1,2-a]pyrazol]-1′-one] as the compound, how does the EC50 read?
Its EC50 is 17 nM.

With `O=C1N2[C@H](c3cc(F)cc(F)c3)CCN2CC12CCN(c1ncccn1)CC2` [Example 1.55, (S)-7′-(3,5-difluorophenyl)-1-(pyrimidin-2-yl)dihydro-1′H,3′H,5′H-spiro[piperidine-4,2′-pyrazolo[1,2-a]pyrazol]-1′-one] as the compound, how does the EC50 read?
The EC50 was 804 nM.

For `O=C1N2[C@H](c3cc(F)cc(F)c3)CCN2CC12CCN(c1ncc(C3CC3)cn1)CC2` [Example 1.56, (S)-1-(5-cyclopropylpyrimidin-2-yl)-7′-(3,5-difluorophenyl)dihydro-1′H,3′H,5′H-spiro[piperidine-4,2′-pyrazolo[1,2-a]pyrazol]-1′-one], which EC50 is on record?
Its EC50 is 321 nM.

With `O=C1N2[C@H](c3cc(F)cc(F)c3)CCN2CC12CCN(c1ncc(F)c(C(F)F)n1)CC2` [Example 1.57, (S)-1-(4-(difluoromethyl)-5-fluoropyrimidin-2-yl)-7′-(3,5-difluorophenyl)dihydro-1′H,3′H,5′H-spiro[piperidine-4,2′-pyrazolo[1,2-a]pyrazol]-1′-one] as the compound, how does the EC50 read?
The EC50 was 26 nM.
